Consider five molecules from patent US20060069132A1, “Azolecarboxamide herbicides” (priority 2004, published 2006).

The structures appear in SMILES notation.

In one assay the test system is downy bromegrass. Description: Test C postemergence herbicide test. The assay is classed as in vivo, Bromus tectorum. Summed up:
(§1)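 Injury scored visually against controls on a 0 (no effect) to 100 (complete control) scale, 12 to 14 days after treatment in greenhouse. Flooded paddy plants treated at 2-leaf stage; postemergence plants at 1- to 4-leaf stage, 2 to 18 cm tall.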

The subject of the next assay is Italian ryegrass. Kind of assay: Test C postemergence herbicide test. Type of assay: in vivo, Lolium multiflorum. Summed up: as §1
For another assay, the system named is wheat. Kind of assay: Test C postemergence herbicide test. The assay is classed as in vivo, Triticum aestivum. Summed up:
as §1

For another assay, the system named is wild oat. Description: Test C postemergence herbicide test. Type of assay: in vivo, Avenafatua. Summed up: as §1
For the next assay, the system named is rice. Kind of assay: Test C flooded paddy test. Type of assay: in vivo, Oryza sativa. As to conditions: for Plant response rating, Rice: 500 g ai/ha, visual rating after 12 to 14 days. Summed up:
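Postemergence sprays applied to plants 2 to 18 cm tall (1- to 4-leaf stage); paddy species grown to 2-leaf stage under flooding. After 12 to 14 days in greenhouse, visual rating versus untreated controls on 0–100 scale (0 no effect, 100 complete control).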

The subject of a further assay is barnyardgrass. Description: Test A pre-/postemergence herbicide test. Type of assay: in vivo, Echinochloa crus-galli. Summed up:
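Visual injury scores on a 0–100 scale (100 = complete control) taken about ten days post-treatment in greenhouse against untreated controls; dash means no result. Treatments: preemergence soil spray and postemergence spray to runoff on one- to two-leaf plants 2 to 10 cm tall, surfactant-containing formulation.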

For another assay, the system named is Surinam grass. Description: Test C pre-/postemergence herbicide test. Type of assay: in vivo, Urochloa decumbens. Conditions: preemergence. Summed up:
(§2)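 Visual ratings on a 0–100 scale (100 = complete control) made versus untreated controls after 12 to 14 greenhouse days. Test chemicals, formulated in surfactant-containing non-phytotoxic solvent, applied preemergence to planted seeds or postemergence to 1- to 4-leaf plants (2 to 18 cm).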

The subject of another assay is cocklebur. Kind of assay: Test C pre-/postemergence herbicide test. Type of assay: in vivo, Xanthium strumarium. Conditions: for Plant response rating, Cocklebur: preemergence. Summed up: as §2
For a further assay, the system named is corn. Kind of assay: Test C pre-/postemergence herbicide test. Conditions: 250 g ai/ha; scale 0-100; preemergence. Type of assay: in vivo, Zea mays. Summed up: as §2
For another assay, the system named is woolly cupgrass. Description: Test C pre-/postemergence herbicide test. Type of assay: in vivo, Eriochloa villosa. As to conditions: preemergence. Summed up: as §2
For the next assay, the system named is johnsongrass. Kind of assay: Test C pre-/postemergence herbicide test. Type of assay: in vivo, Sorghum halepense. Conditions: preemergence. Summed up: as §2
For another assay, the system named is kochia. Kind of assay: Test C pre-/postemergence herbicide test. The assay is classed as in vivo, Kochia scoparia. As to conditions: preemergence. Summed up: as §2
A further assay concerns lambsquarters. Kind of assay: Test C pre-/postemergence herbicide test. The assay is classed as in vivo, Chenopodium album. As to conditions: preemergence. Summed up: as §2
The subject of a further assay is eastern black nightshade. Kind of assay: Test C pre-/postemergence herbicide test. Conditions: preemergence. The assay is classed as in vivo, Solanum ptycanthum. Summed up:
as §2

Assay [1] relates to common (oilseed) sunflower. Description: Test C pre-/postemergence herbicide test. Type of assay: in vivo, Helianthus annuus. As to conditions: preemergence. Summed up: as §2
Where [2] appears, read: Postemergence, 250 g ai/ha, scale 0 to 100, 0 no effect, 100 complete control.
Where [3] appears, read: postemergence, 125 g ai/ha, scale 0 to 100.
[4] abbreviates: postemergence, 31 g ai/ha, scale 0 to 100.
Setting [5] is: postemergence, 62 g ai/ha, scale 0 to 100.
Setting [6] is: 125 g ai/ha, scale 0 to 100 (0 no effect, 100 complete control).
[7] abbreviates: 250 g ai/ha, scale of 0 to 100, 0 is no effect, 100 is complete control.
[8] abbreviates: scale 0 to 100 (0 no effect, 100 complete control).
[9] abbreviates: Postemergence, 500 g ai/ha, scale 0 to 100, 0 no effect, 100 complete control.
The mark [10] stands for this setting: 500 g ai/ha, scale 0 to 100 (0 no effect, 100 complete control), visual, 12 to 14 days.
The mark [11] stands for this setting: 125 g ai/ha, scale 0 (no effect) to 100 (complete control), visual, 12 to 14 days.

As to `CCOC(=O)c1ccc(F)c(NC(=O)c2cc(C3(C)CC3)nn2CC)c1` [Compound 296], the “Plant response rating, Bromegrass, Downy” value was 45 with downy bromegrass (setting [2]), 35 with downy bromegrass (setting [3]), 25 in the assay with downy bromegrass (setting [4]) and 35 in the assay with downy bromegrass (setting [5]). Besides, the results for the “Plant response rating, Ryegrass, Italian” value in the assay on Italian ryegrass (setting [2]), with Italian ryegrass (setting [3]) and in the assay on Italian ryegrass (setting [5]) were 65, 45 and 35, respectively. Besides, the results for the “Plant response rating, Wheat” value with wheat (setting [2]), with wheat (setting [3]) and in the assay with wheat (setting [5]) were 40, 35 and 35, respectively. The “Plant response rating, Oat, Wild” value is on record as 60 in the assay with wild oat (setting [2]), 60 in the assay on wild oat (setting [3]) and 35 with wild oat (setting [5]). Also, the “Rice plant response rating” value with rice (62 g ai/ha, scale 0 to 100) is recorded as 20; in the assay on rice (setting [6]), 20; in the assay with rice (setting [7]), 40. For the same molecule, the “Plant response rating, Rice” value in the assay with rice (setting [8]) is 60.
In the case of `C#CCNC(=O)c1cccc(NC(=O)c2nn(C(C)(C)C)nc2CC)c1` [Compound 380], the “Plant response rating, Bromegrass, Downy” value in the assay with downy bromegrass (setting [2]) stood at 65; in the assay on downy bromegrass (setting [3]), 60; with downy bromegrass (setting [4]), 45; in the assay with downy bromegrass (setting [5]) it was 55. The “Plant response rating, Ryegrass, Italian” value in the assay on Italian ryegrass (setting [3]) worked out at 50; in the assay on Italian ryegrass (setting [5]), 45. For the same molecule, the “Plant response rating, Wheat” value in the assay on wheat (setting [3]) worked out at 25; in the assay with wheat (setting [5]), 20. In addition, the “Plant response rating, Oat, Wild” value in the assay on wild oat (setting [3]) came out at 60; with wild oat (setting [5]), 55. Also, the “Rice plant response rating” value with rice (62 g ai/ha, scale 0 to 100) is recorded as 45; in the assay on rice (setting [6]), 65; with rice (setting [7]), 70. For the same molecule, in the assay with rice (setting [8]), the “Plant response rating, Rice” value is listed as 75.
As for `C=CCOc1cccc(NC(=O)c2cc(C(C)(C)C)nn2CC)c1` [Compound 412], the “Plant response rating, Bromegrass, Downy” value with downy bromegrass (setting [2]) was 55; in the assay on downy bromegrass (setting [9]), 60; in the assay on downy bromegrass (setting [3]), 45; in the assay with downy bromegrass (setting [5]), 40. Besides, the “Plant response rating, Ryegrass, Italian” value in the assay with Italian ryegrass (setting [9]) stood at 60; with Italian ryegrass (setting [3]), 45; in the assay with Italian ryegrass (setting [5]), 40. The “Plant response rating, Wheat” value with wheat (setting [9]) turned out to be 50; in the assay with wheat (setting [3]), 35; in the assay on wheat (setting [5]) it was 35. The “Plant response rating, Oat, Wild” value in the assay with wild oat (setting [9]) came to 70; with wild oat (setting [3]), 65; with wild oat (setting [5]), 60. Further, the “Rice plant response rating” value in the assay on rice (62 g ai/ha, scale 0 to 100) is on record as 15; in the assay on rice (setting [6]) it was 20; with rice (setting [7]) it was 20. Further, the “Plant response rating, Rice” value with rice (setting [8]) was determined as 50.
With `C#CCOc1cccc(NC(=O)c2cc(C(C)(C)C)nn2CC)c1` [Compound 411], the “Plant response rating, Bromegrass, Downy” value in the assay with downy bromegrass (setting [2]) turned out to be 45; in the assay on downy bromegrass (setting [9]), 45; with downy bromegrass (setting [3]), 40; in the assay with downy bromegrass (setting [5]) it was 40. In addition, the “Plant response rating, Ryegrass, Italian” value in the assay on Italian ryegrass (setting [9]) came out at 65; in the assay on Italian ryegrass (setting [3]) it was 60; in the assay on Italian ryegrass (setting [5]), 45. Besides, the entries for the “Plant response rating, Wheat” value in the assay with wheat (setting [9]), with wheat (setting [3]) and with wheat (setting [5]) were 55, 35 and 35, respectively. Moreover, the “Plant response rating, Oat, Wild” value in the assay with wild oat (setting [9]) is given as 65; with wild oat (setting [3]), 60; with wild oat (setting [5]) it was 60. The “Rice plant response rating” value in the assay with rice (62 g ai/ha, scale 0 to 100) was found to be 0; in the assay with rice (setting [6]), 25; in the assay on rice (setting [7]), 35. Besides, in the assay with rice (setting [8]), the “Plant response rating, Rice” value came out at 35.
Take `CCn1nc(C(C)(C)C)cc1C(=O)Nc1cncc(C(=O)N(C)C)n1` [Compound 287]: the “Barnyardgrass plant response rating” value is 70 in the assay with barnyardgrass (Postemergence, 500 g ai/ha, 0 to 100 scale, 0 no effect, 100 complete control); 100 with barnyardgrass (Preemergence, 2000 g ai/ha, visual rating, 0 to 100 scale (0 no effect, 100 complete control)); 95 with barnyardgrass (preemergence, 500 g ai/ha, visual injury, 0 to 100 scale (0 no effect, 100 complete control)). In addition, the “Plant response rating, Barnyardgrass” value with barnyardgrass (Postemergence, 2000 g ai/ha, 0 to 100 scale, 0 no effect, 100 complete control) is reported as 90. For the same molecule, the “Plant response rating, Surinam Grass” value with Surinam grass (250 g ai/ha, scale 0-100) was 65; with Surinam grass (setting [10]), 95. The “Plant response rating, Cocklebur” value in the assay on cocklebur (62 g ai/ha, scale 0 to 100) is 0; in the assay with cocklebur (setting [11]), 0; in the assay with cocklebur (250 g ai/ha, scale 0-100), 10. For the same molecule, the “Cocklebur plant response rating” value in the assay with cocklebur (Preemergence, 500 g ai/ha, scale 0 to 100, 0 no effect, 100 complete control) came to 60. In addition, the “Plant response rating, Corn” value in the assay on corn came to 50. Besides, the “Plant response rating, Cupgrass, Woolly” value in the assay on woolly cupgrass (62 g ai/ha, scale 0 to 100) is 0; with woolly cupgrass (setting [11]), 0; in the assay on woolly cupgrass (250 g ai/ha, scale 0-100), 10; in the assay on woolly cupgrass (setting [10]) it was 35. The “Plant response rating, Johnsongrass” value with johnsongrass (62 g ai/ha, scale 0 to 100) turned out to be 55; in the assay on johnsongrass (setting [11]), 85; in the assay on johnsongrass (250 g ai/ha, scale 0-100) it was 95; in the assay with johnsongrass (setting [10]), 95. Moreover, the “Plant response rating, Kochia” value was 85 with kochia (62 g ai/ha, scale 0 to 100); 100 with kochia (setting [11]); 100 with kochia (250 g ai/ha, scale 0-100); 100 in the assay on kochia (setting [10]). Also, the “Plant response rating, Lambsquarters” value in the assay with lambsquarters (62 g ai/ha, scale 0 to 100) stood at 100; in the assay with lambsquarters (setting [11]), 100; in the assay on lambsquarters (250 g ai/ha, scale 0-100) it was 100; in the assay with lambsquarters (setting [10]), 100. Also, the “Plant response rating, Nightshade” value is reported as 95 in the assay on eastern black nightshade (62 g ai/ha, scale 0 to 100); 100 in the assay on eastern black nightshade (setting [11]); 100 in the assay with eastern black nightshade (250 g ai/ha, scale 0-100); 100 in the assay on eastern black nightshade (setting [10]). The “Plant response rating, Sunflower” value in assay [1] (62 g ai/ha, scale 0 to 100) was determined as 90; in assay [1] (250 g ai/ha, scale 0-100) it was 100; in assay [1] (setting [10]), 100. The “Rice plant response rating” value with rice (62 g ai/ha, scale 0 to 100) came to 0; in the assay on rice (setting [6]) it was 20; in the assay with rice (setting [7]), 25. Besides, the “Plant response rating, Rice” value in the assay on rice (setting [8]) came to 55.
